Experiment [1] concerns hemagglutinin (immobilized H3N2). Put plainly: Biacore binding of synthetic peptides to H3N2 immobilized on Sensor Chip CM5. Further details: species or system influenza virus type A A/Wuhan/359/95 (H3N2). The following applies: Biacore. (In general: In SPR one partner is held on a chip, and binding of the other changes the refractive index at the surface.)
Experiment [2] deals with binding of hemagglutinin (H3) to GM3. Put plainly: ELISA inhibition of GM3-hemagglutinin interaction using GM3 cast membrane. Further details: species or system influenza virus. Here is the method:
Inhibition of the interaction between GM3 and hemagglutinin (HA) was evaluated by ELISA using the GM3 cast membrane (Kazuhiro Nagata and Hiroshi Handa, “Seibutsu Busshitsu Sogosayo no Real-time Kaiseki Jikkenho—BIACORE wo Chushin Ni (Real-time Analysis Experimental Procedures on Biological Substance Interaction—Focusing on BIOCORE), Springer-Verlag Inc., Tokyo, 1998)”). […] In addition, it has been reported from an evaluation by NMR that the binding constant between hemagglutinin and free sialyl lactose is in the order of mM (e.g. α (2, 3)-sialyllactose K0=3.2 mM). Therefore, the results presented in this Example were largely consistent with the inhibition constant of the peptides reported by Inoue. Moreover, the results presented in this Example are in the same order of magnitude as, or one order smaller than, the inhibition constant of A-1 or the binding constant obtained with sialyl lactose.
(In general: ELISA stands for enzyme-linked immunosorbent assay.)

A further experiment deals with hemagglutinin (Influenza A virus, UniProt P03437). To be noted: read-out: binding constant between hemagglutinin and free sialyl lactose (K0); evaluation by NMR, reported; cited from earlier work.

Take “ARLSPTMVHPNGAQP [A-1, ARLSPTMVHPNGAQP-NH2, reference compound]”: in experiment [1], the “order of binding strength to hemagglutinin” value is “s-2>e-1>A-1>pVIII”. Moreover, the IC50 (commonly the concentration at which inhibition is half-maximal) in experiment [2] turned out to be 1.9 mM. With `CC(=O)N[C@H]1[C@H]([C@H](O)[C@H](O)CO)O[C@@](O[C@H]2[C@@H](O)[C@@H](CO)O[C@@H](O[C@H]3[C@H](O)[C@@H](O)C(O)O[C@@H]3CO)[C@@H]2O)(C(=O)O)C[C@@H]1O` (stereo partly drawn) [α (2, 3)-sialyllactose], on hemagglutinin, the Kd is 3.2 mM.

These data come from patent US8299214B2 (priority 2006, dated 2012).
